Assay results as given in patent publication US11331327B2, “Antibacterial use of halogenated salicylanilides” (UNION therapeutics A/S, priority 2014, dated 2022).
Values after ≈ are worked out from the molar mass of the structure shown.

Tested on: S. aureus clinical isolates and S. aureus ATCC 29213
Test: MIC assay according to CLSI criteria, Example 2, S. aureus strains
Format: cell-based, Staphylococcus aureus
Settings: Staphylococcus aureus
Procedure, shortened: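 Wells received roughly 5×10^5 S. aureus cells taken in exponential growth, in cation-adjusted MH broth. Plates held aerobically at 37° C for 18 hours.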

C=C[C@]1(C)C[C@@H](OC(=O)CS[C@@H]2C[C@H]3CC[C@@H](C2)N3C)[C@]2(C)[C@H](C)CC[C@]3(CCC(=O)[C@H]32)[C@@H](C)[C@@H]1O [Retapamulin]
MIC (ATCC 29213 / MRSA, strain MRSA 15): 0.06 mg/L (≈ 0.116 µM)
MIC (ATCC 29213 / MRSA, strain MRSA 16): 0.06 mg/L (≈ 0.116 µM)
MIC (ATCC 29213 / MRSA, strain MRSA 17): 0.03 mg/L (≈ 0.0579 µM)
MIC (ATCC 29213 / MRSA, strain MRSA 18): 0.06 mg/L (≈ 0.116 µM)
MIC (ATCC 29213 / MRSA, strain MRSA 19): 0.03 mg/L (≈ 0.0579 µM)
MIC (ATCC 29213 / MRSA, strain MRSA 20): 0.06 mg/L (≈ 0.116 µM)
MIC (ATCC 29213 / MRSA, strain MRSA 21): 0.125 mg/L (≈ 0.241 µM)
MIC (ATCC 29213 / MRSA, strain MRSA 22): 0.06 mg/L (≈ 0.116 µM)
MIC (ATCC 29213 / MRSA, strain MRSA 23): 0.06 mg/L (≈ 0.116 µM)
MIC (ATCC 29213 / MRSA, strain MRSA 24): 0.06 mg/L (≈ 0.116 µM)
MIC (ATCC 29213 / MRSA, strain MRSA 25): 0.06 mg/L (≈ 0.116 µM)
MIC (ATCC 29213 / MRSA, strain MRSA 26): 0.06 mg/L (≈ 0.116 µM)
MIC (ATCC 29213 / MRSA, strain MRSA 27): 0.06 mg/L (≈ 0.116 µM)
MIC (ATCC 29213 / MRSA, strain MRSA 27b): 0.02 mg/L (≈ 0.0386 µM)
MIC (ATCC 29213 / MRSA, strain MRSA 28): 0.03 mg/L (≈ 0.0579 µM)
MIC (ATCC 29213 / MRSA, strain MRSA 29): 0.06 mg/L (≈ 0.116 µM)
MIC (ATCC 29213 / MRSA, strain MRSA 30): 0.03 mg/L (≈ 0.0579 µM)
MIC (ATCC 29213 / MRSA, strain MRSA 31): 16 mg/L (≈ 30.9 µM)
MIC (ATCC 29213 / MRSA, strain MRSA 32): 0.06 mg/L (≈ 0.116 µM)
MIC (ATCC 29213 / MRSA, strain MRSA 33): 0.06 mg/L (≈ 0.116 µM)
MIC (ATCC 29213 / MRSA, strain MRSA 34): 0.06 mg/L (≈ 0.116 µM)
MIC (ATCC 29213 / MRSA, strain MRSA 35): 0.03 mg/L (≈ 0.0579 µM)
MIC (ATCC 29213 / MRSA, strain MRSA 36): 0.06 mg/L (≈ 0.116 µM)
MIC (ATCC 29213 / MRSA, strain MRSA 37): 0.06 mg/L (≈ 0.116 µM)
MIC (ATCC 29213 / MRSA, strain MRSA 38): 0.06 mg/L (≈ 0.116 µM)
MIC (ATCC 29213 / MRSA, strain MRSA 39): 0.06 mg/L (≈ 0.116 µM)
MIC (ATCC 29213 / MRSA, strain MRSA 40): 0.03 mg/L (≈ 0.0579 µM)
MIC (ATCC 29213 / MRSA, strain MRSA 41): 0.02 mg/L (≈ 0.0386 µM)
MIC (ATCC 29213 / MRSA, strain MRSA 42): 0.06 mg/L (≈ 0.116 µM)
MIC (ATCC 29213 / MRSA, strain MRSA 43): 0.06 mg/L (≈ 0.116 µM)
MIC (ATCC 29213 / MRSA, strain MRSA 44): 0.02 mg/L (≈ 0.0386 µM)
MIC (ATCC 29213 / MRSA, strain MRSA 45): 0.02 mg/L (≈ 0.0386 µM)
MIC (ATCC 29213 / MRSA, strain MRSA 46): 0.02 mg/L (≈ 0.0386 µM)
MIC (ATCC 29213 / MRSA, strain MRSA 47): 0.02 mg/L (≈ 0.0386 µM)
MIC (ATCC 29213 / MRSA, strain MRSA 48): 0.02 mg/L (≈ 0.0386 µM)
MIC (ATCC 29213 / MRSA, strain MRSA 49): 0.02 mg/L (≈ 0.0386 µM)
MIC (ATCC 29213 / MRSA, strain MRSA 50): 0.02 mg/L (≈ 0.0386 µM)
MIC (ATCC 29213 / MRSA, strain MRSA 51): 0.03 mg/L (≈ 0.0579 µM)
MIC (ATCC 29213 / MRSA, strain MRSA 52): 0.02 mg/L (≈ 0.0386 µM)
MIC (ATCC 29213 / MRSA, strain MRSA 53): 0.03 mg/L (≈ 0.0579 µM)
MIC (ATCC 29213 / MRSA, strain MRSA 54): 0.03 mg/L (≈ 0.0579 µM)
MIC (ATCC 29213 / MRSA, strain MRSA 55): 0.02 mg/L (≈ 0.0386 µM)
MIC (ATCC 29213 / MRSA, strain MRSA 56): < 0.01 mg/L
MIC (ATCC 29213 / MRSA, strain MRSA 57): 0.02 mg/L (≈ 0.0386 µM)
MIC (ATCC 29213 / MRSA, strain MRSA 58): 0.02 mg/L (≈ 0.0386 µM)
MIC (ATCC 29213 / MRSA, strain MRSA 59): 0.02 mg/L (≈ 0.0386 µM)
MIC (ATCC 29213 / MRSA, strain MRSA 60): 0.02 mg/L (≈ 0.0386 µM)
MIC (ATCC 29213 / MRSA, strain MRSA 61): 0.02 mg/L (≈ 0.0386 µM)
MIC (ATCC 29213 / MRSA, strain MRSA 62): 0.02 mg/L (≈ 0.0386 µM)
MIC (ATCC 29213 / MRSA, strain MRSA 63): 0.02 mg/L (≈ 0.0386 µM)
MIC (ATCC 29213 / MRSA, strain MRSA 64): 0.02 mg/L (≈ 0.0386 µM)
MIC (ATCC 29213 / MRSA, strain MRSA 65): 0.02 mg/L (≈ 0.0386 µM)
MIC (ATCC 29213 / MRSA, strain MRSA 66): 0.02 mg/L (≈ 0.0386 µM)
MIC (ATCC 29213 / MRSA, strain MRSA 67): 0.02 mg/L (≈ 0.0386 µM)
MIC (ATCC 29213 / MRSA, strain MRSA 68): 0.02 mg/L (≈ 0.0386 µM)
MIC (ATCC 29213 / MRSA, strain MRSA 69): < 0.01 mg/L
MIC (ATCC 29213 / MRSA, strain MRSA 70): 0.02 mg/L (≈ 0.0386 µM)
MIC (ATCC 29213 / MRSA, strain MRSA 71): < 0.01 mg/L
MIC (ATCC 29213 / MRSA, strain MRSA 72): 0.03 mg/L (≈ 0.0579 µM)
MIC (ATCC 29213 / MRSA, strain MRSA 73): 0.03 mg/L (≈ 0.0579 µM)
MIC (ATCC 29213 / MRSA, strain MRSA 74): 0.03 mg/L (≈ 0.0579 µM)
MIC (ATCC 29213 / MRSA, strain MRSA 75): 0.03 mg/L (≈ 0.0579 µM)
MIC (ATCC 29213 / MRSA, strain MRSA 76): 0.03 mg/L (≈ 0.0579 µM)
MIC (ATCC 29213 / MRSA, strain MRSA 77): 0.03 mg/L (≈ 0.0579 µM)
MIC (ATCC 29213 / MRSA, strain MRSA 78): 0.03 mg/L (≈ 0.0579 µM)
MIC (ATCC 29213 / MRSA, strain MRSA 79): < 0.01 mg/L
MIC (ATCC 29213 / MRSA, strain MRSA 80): 0.02 mg/L (≈ 0.0386 µM)
MIC (ATCC 29213 / MRSA, strain MRSA 81): 0.03 mg/L (≈ 0.0579 µM)
MIC (ATCC 29213 / MRSA, strain MRSA 82): 0.03 mg/L (≈ 0.0579 µM)
MIC (ATCC 29213 / MRSA, strain MRSA 83): 0.03 mg/L (≈ 0.0579 µM)
MIC (ATCC 29213 / MRSA, strain MRSA 84): 0.03 mg/L (≈ 0.0579 µM)
MIC (ATCC 29213 / MRSA, strain MRSA 85): 0.03 mg/L (≈ 0.0579 µM)
MIC (ATCC 29213 / MRSA, strain MRSA 86): 0.03 mg/L (≈ 0.0579 µM)
MIC (ATCC 29213 / MRSA, strain MRSA 87): 0.02 mg/L (≈ 0.0386 µM)
MIC (ATCC 29213 / MRSA, strain MRSA 88): 0.03 mg/L (≈ 0.0579 µM)
MIC (ATCC 29213 / MRSA, strain MRSA 89): 0.02 mg/L (≈ 0.0386 µM)
MIC (ATCC 29213 / MRSA, strain MRSA 90): 0.06 mg/L (≈ 0.116 µM)
MIC (ATCC 29213 / MRSA, strain MRSA 91): 0.06 mg/L (≈ 0.116 µM)
MIC (ATCC 29213 / MRSA, strain MRSA 92): 0.06 mg/L (≈ 0.116 µM)
MIC (ATCC 29213 / MRSA, strain MRSA 93): 0.02 mg/L (≈ 0.0386 µM)
MIC (ATCC 29213 / MRSA, strain MRSA 94): 0.03 mg/L (≈ 0.0579 µM)
MIC (ATCC 29213 / MRSA, strain MRSA 95): 0.03 mg/L (≈ 0.0579 µM)
MIC (ATCC 29213 / MRSA, strain MRSA 96): 0.03 mg/L (≈ 0.0579 µM)
MIC (ATCC 29213 / MRSA, strain MRSA 97): 0.03 mg/L (≈ 0.0579 µM)
MIC (ATCC 29213 / MRSA, strain MRSA 98): 0.03 mg/L (≈ 0.0579 µM)
MIC (ATCC 29213 / MRSA, strain MRSA 99): 0.03 mg/L (≈ 0.0579 µM)
MIC (ATCC 29213 / MRSA, strain MRSA 100): 1 mg/L (≈ 1.93 µM)
MIC (ATCC 29213 / MRSA, strain MRSA 101): 0.03 mg/L (≈ 0.0579 µM)
MIC (ATCC 29213 / MRSA, strain MRSA 102): 0.03 mg/L (≈ 0.0579 µM)
MIC (ATCC 29213 / MRSA, strain MRSA 103): 0.03 mg/L (≈ 0.0579 µM)
MIC (ATCC 29213 / MRSA, strain MRSA 104): 0.03 mg/L (≈ 0.0579 µM)
MIC (ATCC 29213 / MRSA, strain MRSA 105): 0.03 mg/L (≈ 0.0579 µM)
MIC (ATCC 29213 / MRSA, strain MRSA 106): 0.06 mg/L (≈ 0.116 µM)
MIC (ATCC 29213 / MRSA, strain MRSA 107): 0.06 mg/L (≈ 0.116 µM)
MIC (ATCC 29213 / MRSA, strain MRSA 108): 0.03 mg/L (≈ 0.0579 µM)
MIC (ATCC 29213 / MRSA, strain MRSA 109): 0.03 mg/L (≈ 0.0579 µM)
MIC (ATCC 29213 / MRSA, strain MRSA 110): 0.03 mg/L (≈ 0.0579 µM)
MIC (ATCC 29213 / MRSA, strain MRSA 111): 0.03 mg/L (≈ 0.0579 µM)
MIC (ATCC 29213 / MRSA, strain MRSA 112): 0.03 mg/L (≈ 0.0579 µM)
MIC (ATCC 29213 / MRSA, strain MRSA 113): 0.03 mg/L (≈ 0.0579 µM)
MIC (ATCC 29213 / MSSA, strain MSSA 01): 0.03 mg/L (≈ 0.0579 µM)
MIC (ATCC 29213 / MSSA, strain MSSA 02): 0.03 mg/L (≈ 0.0579 µM)
MIC (ATCC 29213 / NEWMAN, strain Newman): 0.03 mg/L (≈ 0.0579 µM)
